Experiments:
[1] = cited from earlier work
[2] = biological target: T1, AChE from human erythrocytes (Homo sapiens, UniProt P22303); format: biochemical; settings: for αKi (non-competitive component), AChE / Ki: Lineweaver-Burk analysis; for Ki: read-out: Ki (competitive component), AChE
T1 construct: Acetylcholinesterase (AChE, EC 3.1.1.7, from human erythrocyte); purchased Sigma-Aldrich (Germany); host or cells: human erythrocytes
Experimental: (§1) To elucidate the inhibition mechanisms for the active compounds, the AChE and BChE residual activity was determined in the presence of 3 increasing concentrations of the test compounds and 6 decreasing concentrations of the substrates. The test compounds were preincubated with the enzymes at 25 °C for 5 min, followed by the addition of the substrates. Parallel controls were made for an assay of the rate of hydrolysis of the same concentrations of substrates in the solutions with no inhibitor. […] Each experiment was performed three times.

BChE from equine serum = biological target: T2, BChE from equine serum (Equus caballus, UniProt P81908); format: biochemical; settings: for αKi (non-competitive component), BChE / Ki: Lineweaver-Burk analysis; for Ki: read-out: Ki (competitive component), BChE
T2 construct: butyrylcholinesterase (BChE, EC 3.1.1.8, from equine serum); purchased Sigma-Aldrich (Germany); host or cells: equine serum
T2 sequence (P81908 whole entry): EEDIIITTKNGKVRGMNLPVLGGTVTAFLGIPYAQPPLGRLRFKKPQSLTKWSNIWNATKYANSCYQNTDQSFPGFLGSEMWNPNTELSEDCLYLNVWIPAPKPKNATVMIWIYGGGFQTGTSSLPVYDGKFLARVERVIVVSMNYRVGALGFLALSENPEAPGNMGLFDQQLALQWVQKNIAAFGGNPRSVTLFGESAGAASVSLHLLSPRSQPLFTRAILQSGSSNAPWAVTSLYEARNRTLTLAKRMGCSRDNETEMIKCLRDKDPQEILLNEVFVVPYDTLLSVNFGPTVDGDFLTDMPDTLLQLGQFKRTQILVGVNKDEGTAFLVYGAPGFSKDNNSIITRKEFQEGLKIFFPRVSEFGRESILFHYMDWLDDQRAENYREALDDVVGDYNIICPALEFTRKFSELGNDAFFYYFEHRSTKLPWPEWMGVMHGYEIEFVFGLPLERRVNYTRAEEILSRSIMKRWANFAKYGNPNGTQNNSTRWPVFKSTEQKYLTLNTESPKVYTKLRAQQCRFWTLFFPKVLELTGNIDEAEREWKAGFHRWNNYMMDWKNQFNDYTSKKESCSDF
Experimental: as §1

[3] = Lineweaver-Burk plots, changes in Vmax and Km

T1 sequence (P22303 32-617 isoform P22303-2 limits assumed): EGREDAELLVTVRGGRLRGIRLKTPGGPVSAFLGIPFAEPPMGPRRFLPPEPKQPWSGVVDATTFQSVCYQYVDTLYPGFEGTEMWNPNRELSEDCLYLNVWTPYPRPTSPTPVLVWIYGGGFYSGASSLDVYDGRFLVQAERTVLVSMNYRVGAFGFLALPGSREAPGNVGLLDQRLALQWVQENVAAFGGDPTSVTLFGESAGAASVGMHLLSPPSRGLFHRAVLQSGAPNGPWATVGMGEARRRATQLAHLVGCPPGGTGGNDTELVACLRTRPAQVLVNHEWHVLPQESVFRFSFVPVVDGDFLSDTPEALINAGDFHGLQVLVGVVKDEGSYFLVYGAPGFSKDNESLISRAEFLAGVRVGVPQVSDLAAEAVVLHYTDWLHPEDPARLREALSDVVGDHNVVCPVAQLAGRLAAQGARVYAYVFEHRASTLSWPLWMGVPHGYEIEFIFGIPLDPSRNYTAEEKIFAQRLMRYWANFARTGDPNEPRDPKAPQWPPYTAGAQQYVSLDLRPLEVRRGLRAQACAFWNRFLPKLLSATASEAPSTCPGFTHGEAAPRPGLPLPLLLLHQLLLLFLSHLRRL

| Compound | redox potential [1] [mV] | αKi (non-competitive component), AChE [2] [µM] | Ki [2] [nM] | αKi (non-competitive component), BChE (BChE from equine serum) [µM] | Ki (BChE from equine serum) [nM] | type of AChE inhibition [2, 3] | type of BChE inhibition (BChE from equine serum; [3]) |
| --- | --- | --- | --- | --- | --- | --- | --- |
| CN(C)c1ccc2nc3ccc(=[N+](C)C)cc-3sc2c1 [MB, methylene blue, reference compound] | 11 | – | – | – | – | – | – |
| Cc1ccc2c(c1)c1c(n2CCC(=O)N2c3ccc(N(C)C)cc3Sc3cc(N(C)C)ccc32)CCN(C(C)C)C1.Cl.Cl.Cl [Compound 6] | – | 13.4 ± 1.2 | 3520 ± 290 | 2.64 ± 0.24 | 530 ± 40 | – | – |
| Cc1ccc2c(c1)c1c(n2CCC(=O)N2c3ccc(N(C)C)cc3Sc3cc(N(C)C)ccc32)CCN(C)C1 [Compound 3] | – | 3.35 ± 0.31 | 880 ± 70 | 2.09 ± 0.19 | 370 ± 30 | mixed-type inhibition | mixed-type inhibition |

Reference: article PMC6424957 (Scientific Reports, 2019)
